Experimental data reported in ChEMBL document CHEMBL3046319, “PCR-RFLP detection of the E198A mutation conferring resistance to benzimidazoles in field isolates of Monilinia laxa from Greece” (Crop Prot, 2012).

Columns and labels:
Format in all cases: functional
Monilinia laxa [1] = assay: Fungicidal activity against Monilinia laxa isolate MLK12 assessed as mycelial growth at 0.05 ug/ml at 25 degC after 4 days
Monilinia laxa [2] = assay: Fungicidal activity against Monilinia laxa isolate MLK1 assessed as mycelial growth at 0.05 ug/ml at 25 degC after 4 days
Monilinia laxa [3] = assay: Fungicidal activity against Monilinia laxa isolate MLC2 assessed as mycelial growth at 0.05 ug/ml at 25 degC after 4 days
Monilinia laxa [4] = assay: Fungicidal activity against Monilinia laxa isolate MLX1 assessed as mycelial growth at 0.05 ug/ml at 25 degC after 4 days
Monilinia laxa [5] = assay: Fungicidal activity against Monilinia laxa isolate MLP4 assessed as mycelial growth at 0.05 ug/ml at 25 degC after 4 days
Monilinia laxa [6] = assay: Fungicidal activity against Monilinia laxa isolate MLA1 assessed as mycelial growth at 0.05 ug/ml at 25 degC after 4 days
Monilinia laxa [7] = assay: Fungicidal activity against Monilinia laxa isolate MLX5 assessed as mycelial growth at 0.05 ug/ml at 25 degC after 4 days
Monilinia laxa [8] = assay: Fungicidal activity against Monilinia laxa isolate MLP2 assessed as mycelial growth at 0.05 ug/ml at 25 degC after 4 days
Monilinia laxa [9] = assay: Fungicidal activity against Monilinia laxa isolate MLBO5 assessed as mycelial growth at 0.05 ug/ml at 25 degC after 4 days
Monilinia laxa [10] = assay: Fungicidal activity against Monilinia laxa isolate MLBO2 assessed as mycelial growth at 0.05 ug/ml at 25 degC after 4 days
Monilinia laxa [11] = assay: Fungicidal activity against Monilinia laxa isolate MLG1 assessed as mycelial growth at 0.05 ug/ml at 25 degC after 4 days
Monilinia laxa [12] = assay: Fungicidal activity against Monilinia laxa isolate MLK12 assessed as mycelial growth at 0.5 ug/ml at 25 degC after 4 days
Monilinia laxa [13] = assay: Fungicidal activity against Monilinia laxa isolate MLK1 assessed as mycelial growth at 0.5 ug/ml at 25 degC after 4 days
Monilinia laxa [14] = assay: Fungicidal activity against Monilinia laxa isolate MLC2 assessed as mycelial growth at 0.5 ug/ml at 25 degC after 4 days
Monilinia laxa [15] = assay: Fungicidal activity against Monilinia laxa isolate MLX1 assessed as mycelial growth at 0.5 ug/ml at 25 degC after 4 days
Monilinia laxa [16] = assay: Fungicidal activity against Monilinia laxa isolate MLP4 assessed as mycelial growth at 0.5 ug/ml at 25 degC after 4 days
Monilinia laxa [17] = assay: Fungicidal activity against Monilinia laxa isolate MLA1 assessed as mycelial growth at 0.5 ug/ml at 25 degC after 4 days
Monilinia laxa [18] = assay: Fungicidal activity against Monilinia laxa isolate MLX5 assessed as mycelial growth at 0.5 ug/ml at 25 degC after 4 days
Monilinia laxa [19] = assay: Fungicidal activity against Monilinia laxa isolate MLP2 assessed as mycelial growth at 0.5 ug/ml at 25 degC after 4 days
Monilinia laxa [20] = assay: Fungicidal activity against Monilinia laxa isolate MLBO5 assessed as mycelial growth at 0.5 ug/ml at 25 degC after 4 days
Monilinia laxa [21] = assay: Fungicidal activity against Monilinia laxa isolate MLBO2 assessed as mycelial growth at 0.5 ug/ml at 25 degC after 4 days
Monilinia laxa [22] = assay: Fungicidal activity against Monilinia laxa isolate MLG1 assessed as mycelial growth at 0.5 ug/ml at 25 degC after 4 days
Monilinia laxa [23] = assay: Fungicidal activity against Monilinia laxa isolate MLK12 assessed as mycelial growth at 1 ug/ml at 25 degC after 4 days
Monilinia laxa [24] = assay: Fungicidal activity against Monilinia laxa isolate MLK1 assessed as mycelial growth at 1 ug/ml at 25 degC after 4 days
Monilinia laxa [25] = assay: Fungicidal activity against Monilinia laxa isolate MLC2 assessed as mycelial growth at 1 ug/ml at 25 degC after 4 days
Monilinia laxa [26] = assay: Fungicidal activity against Monilinia laxa isolate MLX1 assessed as mycelial growth at 1 ug/ml at 25 degC after 4 days
Monilinia laxa [27] = assay: Fungicidal activity against Monilinia laxa isolate MLP4 assessed as mycelial growth at 1 ug/ml at 25 degC after 4 days
Monilinia laxa [28] = assay: Fungicidal activity against Monilinia laxa isolate MLBO2 assessed as mycelial growth at 1 ug/ml at 25 degC after 4 days
Monilinia laxa [29] = assay: Fungicidal activity against Monilinia laxa isolate MLA1 assessed as mycelial growth at 1 ug/ml at 25 degC after 4 days
Monilinia laxa [30] = assay: Fungicidal activity against Monilinia laxa isolate MLX5 assessed as mycelial growth at 1 ug/ml at 25 degC after 4 days
Monilinia laxa [31] = assay: Fungicidal activity against Monilinia laxa isolate MLP2 assessed as mycelial growth at 1 ug/ml at 25 degC after 4 days
Monilinia laxa [32] = assay: Fungicidal activity against Monilinia laxa isolate MLBO5 assessed as mycelial growth at 1 ug/ml at 25 degC after 4 days
Monilinia laxa [33] = assay: Fungicidal activity against Monilinia laxa isolate MLG1 assessed as mycelial growth at 1 ug/ml at 25 degC after 4 days
Monilinia laxa [34] = assay: Fungicidal activity against Monilinia laxa isolate MLK12 assessed as mycelial growth at 5 ug/ml at 25 degC after 4 days
Monilinia laxa [35] = assay: Fungicidal activity against Monilinia laxa isolate MLK1 assessed as mycelial growth at 5 ug/ml at 25 degC after 4 days
Monilinia laxa [36] = assay: Fungicidal activity against Monilinia laxa isolate MLC2 assessed as mycelial growth at 5 ug/ml at 25 degC after 4 days
Monilinia laxa [37] = assay: Fungicidal activity against Monilinia laxa isolate MLX1 assessed as mycelial growth at 5 ug/ml at 25 degC after 4 days
Monilinia laxa [38] = assay: Fungicidal activity against Monilinia laxa isolate MLP4 assessed as mycelial growth at 5 ug/ml at 25 degC after 4 days
Monilinia laxa [39] = assay: Fungicidal activity against Monilinia laxa isolate MLBO2 assessed as mycelial growth at 5 ug/ml at 25 degC after 4 days
Monilinia laxa [40] = assay: Fungicidal activity against Monilinia laxa isolate MLA1 assessed as mycelial growth at 5 ug/ml at 25 degC after 4 days
Monilinia laxa [41] = assay: Fungicidal activity against Monilinia laxa isolate MLX5 assessed as mycelial growth at 5 ug/ml at 25 degC after 4 days
Monilinia laxa [42] = assay: Fungicidal activity against Monilinia laxa isolate MLP2 assessed as mycelial growth at 5 ug/ml at 25 degC after 4 days
Monilinia laxa [43] = assay: Fungicidal activity against Monilinia laxa isolate MLBO5 assessed as mycelial growth at 5 ug/ml at 25 degC after 4 days
Monilinia laxa [44] = assay: Fungicidal activity against Monilinia laxa isolate MLG1 assessed as mycelial growth at 5 ug/ml at 25 degC after 4 days
Monilinia laxa [45] = assay: Fungicidal activity against Monilinia laxa isolate MLK1 assessed as mycelial growth at 0.1 ug/ml at 25 degC after 4 days
Monilinia laxa [46] = assay: Fungicidal activity against Monilinia laxa isolate MLC2 assessed as mycelial growth at 0.1 ug/ml at 25 degC after 4 days
Monilinia laxa [47] = assay: Fungicidal activity against Monilinia laxa isolate MLX1 assessed as mycelial growth at 0.1 ug/ml at 25 degC after 4 days
Monilinia laxa [48] = assay: Fungicidal activity against Monilinia laxa isolate MLP4 assessed as mycelial growth at 0.1 ug/ml at 25 degC after 4 days
Monilinia laxa [49] = assay: Fungicidal activity against Monilinia laxa isolate MLK12 assessed as mycelial growth at 0.1 ug/ml at 25 degC after 4 days
Monilinia laxa [50] = assay: Fungicidal activity against Monilinia laxa isolate MLA1 assessed as mycelial growth at 0.1 ug/ml at 25 degC after 4 days
Monilinia laxa [51] = assay: Fungicidal activity against Monilinia laxa isolate MLX5 assessed as mycelial growth at 0.1 ug/ml at 25 degC after 4 days
Monilinia laxa [52] = assay: Fungicidal activity against Monilinia laxa isolate MLP2 assessed as mycelial growth at 0.1 ug/ml at 25 degC after 4 days
Monilinia laxa [53] = assay: Fungicidal activity against Monilinia laxa isolate MLBO5 assessed as mycelial growth at 0.1 ug/ml at 25 degC after 4 days
Monilinia laxa [54] = assay: Fungicidal activity against Monilinia laxa isolate MLBO2 assessed as mycelial growth at 0.1 ug/ml at 25 degC after 4 days
Monilinia laxa [55] = assay: Fungicidal activity against Monilinia laxa isolate MLG1 assessed as mycelial growth at 0.1 ug/ml at 25 degC after 4 days

Row | SMILES | Activity (Monilinia laxa [1]) [%] | Activity (Monilinia laxa [2]) [%] | Activity (Monilinia laxa [3]) [%] | Activity (Monilinia laxa [4]) [%] | Activity (Monilinia laxa [5]) [%] | Activity (Monilinia laxa [6]) [%] | Activity (Monilinia laxa [7]) [%] | Activity (Monilinia laxa [8]) [%] | Activity (Monilinia laxa [9]) [%] | Activity (Monilinia laxa [10]) [%] | Activity (Monilinia laxa [11]) [%] | Activity (Monilinia laxa [12]) [%] | Activity (Monilinia laxa [13]) [%] | Activity (Monilinia laxa [14]) [%] | Activity (Monilinia laxa [15]) [%] | Activity (Monilinia laxa [16]) [%] | Activity (Monilinia laxa [17]) [%] | Activity (Monilinia laxa [18]) [%] | Activity (Monilinia laxa [19]) [%] | Activity (Monilinia laxa [20]) [%] | other results
1 | COC(=O)N(OC)c1ccccc1COc1ccn(-c2ccc(Cl)cc2)n1 [PYRACLOSTROBIN] | 37.5 | 50.05 | 34.48 | 29.41 | 47.32 | 36.82 | 51.15 | 50 | 49.62 | 40.65 | 25 | – | – | – | – | – | – | – | – | – | –
2 | CCC(C)(NC(=O)c1cc(Cl)c(C)c(Cl)c1)C(=O)CCl (centres undefined) [ZOXAMIDE] | – | – | – | – | – | – | – | – | – | – | – | 0 | 0 | 0 | 0 | 0 | 48.95 | 39.09 | 59.09 | 44 | Activity (Monilinia laxa [21]): 43.33%; Activity (Monilinia laxa [22]): 36.05%
3 | CCCCNC(=O)n1c(NC(=O)OC)nc2ccccc21 [BENOMYL] | – | – | – | – | – | – | – | – | – | – | – | – | – | – | – | – | – | – | – | – | Activity (Monilinia laxa [23]): 100%; Activity (Monilinia laxa [24]): 100%; Activity (Monilinia laxa [25]): 80.01%; Activity (Monilinia laxa [26]): 100%; Activity (Monilinia laxa [27]): 100%; Activity (Monilinia laxa [28]): 0%; Activity (Monilinia laxa [29]): 0%; Activity (Monilinia laxa [30]): 0%; Activity (Monilinia laxa [31]): 0%; Activity (Monilinia laxa [32]): 0%; Activity (Monilinia laxa [33]): 0%
4 | N#Cc1c[nH]cc1-c1cccc2c1OC(F)(F)O2 [FLUDIOXONIL] | 12.78 | 13.66 | 18.3 | 21.09 | 13.89 | 16.22 | 17.5 | 16.05 | 11.01 | 17.99 | 15.05 | – | – | – | – | – | – | – | – | – | –
5 | CC(C)NC(=O)N1CC(=O)N(c2cc(Cl)cc(Cl)c2)C1=O [IPRODIONE] | – | – | – | – | – | – | – | – | – | – | – | 45.46 | 57.14 | 46.61 | 21.88 | 45.23 | 30.22 | 54.55 | 28.12 | 0 | Activity (Monilinia laxa [21]): 40.44%; Activity (Monilinia laxa [22]): 35.42%
6 | CC(C)(C)C(O)(CCc1ccc(Cl)cc1)Cn1cncn1 (centres undefined) [TEBUCONAZOLE] | 30 | 22.24 | 39.39 | 30.77 | 35.71 | 47.41 | 65.45 | 34.29 | 49.65 | 48.34 | 25.3 | – | – | – | – | – | – | – | – | – | –
7 | COC(=O)NC(=S)Nc1ccccc1NC(=S)NC(=O)OC [THIOPHANATE METHYL] | – | – | – | – | – | – | – | – | – | – | – | – | – | – | – | – | – | – | – | – | Activity (Monilinia laxa [34]): 100%; Activity (Monilinia laxa [35]): 100%; Activity (Monilinia laxa [36]): 95.25%; Activity (Monilinia laxa [37]): 100%; Activity (Monilinia laxa [38]): 93.75%; Activity (Monilinia laxa [39]): 0%; Activity (Monilinia laxa [40]): 0%; Activity (Monilinia laxa [41]): 0%; Activity (Monilinia laxa [42]): 0%; Activity (Monilinia laxa [43]): 0%; Activity (Monilinia laxa [44]): 0%
8 | CC1(C(=O)Nc2ccc(O)c(Cl)c2Cl)CCCCC1 [FENHEXAMID] | – | – | – | – | – | – | – | – | – | – | – | – | – | – | – | – | – | – | – | – | Activity (Monilinia laxa [45]): 17.65%; Activity (Monilinia laxa [46]): 50.35%; Activity (Monilinia laxa [47]): 21.82%; Activity (Monilinia laxa [48]): 45.83%; Activity (Monilinia laxa [49]): 60.05%; Activity (Monilinia laxa [50]): 23.05%; Activity (Monilinia laxa [51]): 50.34%; Activity (Monilinia laxa [52]): 25%; Activity (Monilinia laxa [53]): 21.05%; Activity (Monilinia laxa [54]): 10.03%; Activity (Monilinia laxa [55]): 0%
9 | O=C(Nc1ccccc1-c1ccc(Cl)cc1)c1cccnc1Cl [BOSCALID] | – | – | – | – | – | – | – | – | – | – | – | 45.05 | 62.05 | 0 | 60.03 | 0 | 42.73 | 0 | 66.82 | 0 | Activity (Monilinia laxa [21]): 36.67%; Activity (Monilinia laxa [22]): 0%
